We go through eight compounds from patent US12661410B2, “Compounds for targeted degradation of RET” (C4 Therapeutics, Inc., priority 2020, dated 2026).

One assay deals with T1, RET(KD: 658-1114 G810R) (Homo sapiens, UniProt P07949, G810R).
T1 construct: 658-1114; expressed in transfected cells; host or cells: 293T.165 (293T cells, generated in-house)
T1 sequence (P07949 658-1114 G810R): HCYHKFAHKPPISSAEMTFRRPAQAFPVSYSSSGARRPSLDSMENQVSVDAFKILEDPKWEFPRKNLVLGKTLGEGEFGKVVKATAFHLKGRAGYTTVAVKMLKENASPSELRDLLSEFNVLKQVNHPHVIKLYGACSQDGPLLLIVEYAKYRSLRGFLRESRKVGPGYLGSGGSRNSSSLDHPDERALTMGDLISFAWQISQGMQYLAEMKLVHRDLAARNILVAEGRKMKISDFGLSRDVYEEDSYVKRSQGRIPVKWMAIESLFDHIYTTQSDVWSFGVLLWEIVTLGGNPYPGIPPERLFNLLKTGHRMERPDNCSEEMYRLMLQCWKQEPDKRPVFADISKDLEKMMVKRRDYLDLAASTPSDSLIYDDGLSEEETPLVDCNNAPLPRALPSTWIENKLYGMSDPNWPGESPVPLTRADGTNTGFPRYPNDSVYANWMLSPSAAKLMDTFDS
Nature of the assay: HiBiT-Degradation, RET G810R degradation assay (Nano-Glo HiBiT Lytic), 293T.165 cells. Type of assay: cell-based. To be noted: for Emax / DC50: 6.0 hours; for Emax: % remaining protein, read-out: 293T.165 RET(KD: 658-1114 G810R) 6.0 hours (Emax); for DC50: read-out: 293T.165 RET(KD: 658-1114 G810R) 6.0 hours (DC50). In short, it runs like this:
(§1)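 6 h treatment, 293T.144 (WT) / 293T.165 (G810R) cells ectopically expressing HiBiT-fused RET KD; 11-pt half-log dilution, top 10 μM, n=2. Nano-Glo HiBiT lytic detection, luminescence. Output: DC50, Emax (% protein remaining).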

For the next assay, the target named is T2, RET (658-1114) (Homo sapiens, UniProt P07949).
T2 construct: 658-1114; expressed in transfected cells; host or cells: 293T.144 (293T cells, generated in-house)
T2 sequence (P07949 658-1114): T1 sequence (P07949 658-1114 G810R) with R153G
The assay can be described thus: HiBiT-Degradation, RET wild-type degradation assay (Nano-Glo HiBiT Lytic), 293T.144 cells. Type of assay: cell-based. The conditions noted are these: for DC50 / Emax: 6.0 hours; for DC50: read-out: 293T.144 RET (658-1114) 6.0 hours (DC50); for Emax: read-out: 293T.144 RET (658-1114) 6.0 hours (Emax). The essentials:
as §1

[1] abbreviates: half-maximal degradation concentration.

Changes are numbered by the printed parent chain. Like-named read-outs stand apart in the source and are kept apart here. Bounds are passed on as bounds.

`N#Cc1cnn2cc(-c3cnn(C4CCN(CCN5CCC(c6ccc(NC7CCC(=O)NC7=O)cc6F)CC5)CC4)c3)cc(-c3ccc(N4CCN(Cc5ccccn5)CC4)nc3)c12` (stereo not shown) [Compound 12, 6-(1-(1-(2-(4-(4-((2,6-Dioxopiperidin-3-yl)amino)-2-fluorophenyl)piperidin-1-yl)ethyl)piperidin-4-yl)-1H-pyrazol-4-yl)-4-(6-(4-(pyridin-2-ylmethyl)piperazin-1-yl)pyridin-3-yl)pyrazolo[1,5-a]pyridine-3-carbonitrile]: on RET(KD: 658-1114 G810R), the Emax was less than 50%. Further, at RET(KD: 658-1114 G810R) (setting [1]), the DC50 is less than 100 nM. Also, at RET(KD: 658-1114 G810R) (HiBiT-Degradation), the “293T.165 RET(KD: 658-1114 G810R) 6.0 hours (Emax)” value was “+++ (<50% = +++)”, the “293T.165 RET(KD: 658-1114 G810R) 6.0 hours (IP) [nM]” value was “++++ (< 50 nM = ++++)” and the half-maximal degradation concentration (DC50) was less than 100 nM. Moreover, on RET (658-1114) (HiBiT-Degradation), the “293T.144 RET (658-1114) 6.0 hours (IP) [nM]” value (from here on “293T.144 RET”) was “++++ (< 50 nM = ++++)”, the 50% degradation concentration (DC50) was less than 50 nM and the Emax is less than 30%.
Turning to `CC(=O)N1CCN(c2ccc(-c3cc(-c4ccc(N5CCN(C(=O)CN6CCC(c7ccc(NC8CCC(=O)NC8=O)cc7)CC6)CC5)cc4)cn4ncc(C#N)c34)cn2)CC1` (stereo not shown) [Compound 41, 4-[6-(4-acetylpiperazin-1-yl)-3-pyridyl]-6-[4-[4-[2-[4-[4-[(2,6-dioxo-3-piperidyl)amino]phenyl]-1-piperidyl]acetyl]piperazin-1-yl]phenyl]pyrazolo[1,5-a]pyridine-3-carbonitrile], the Emax on RET(KD: 658-1114 G810R) was less than 50%. In addition, on RET(KD: 658-1114 G810R) (setting [1]), the DC50 is less than 100 nM. Also, on RET(KD: 658-1114 G810R) (HiBiT-Degradation), the “293T.165 RET(KD: 658-1114 G810R) 6.0 hours (Emax)” value is “+++ (<50% = +++)”, the “293T.165 RET(KD: 658-1114 G810R) 6.0 hours (IP) [nM]” value is on record as “++++ (< 50 nM = ++++)” and the DC50 was less than 100 nM. Besides, on RET (658-1114) (HiBiT-Degradation), the “293T.144 RET” value is “++++ (< 50 nM = ++++)”, the DC50 is less than 50 nM and the Emax is less than 30%.
As for `N#Cc1cnn2cc(-c3cnn([C@H]4CC[C@H](N5CCN(c6ccc(NC7CCC(=O)NC7=O)cc6F)CC5)CC4)c3)nc(-c3ccc(N4CC5COCC(C4)N5Cc4ccccn4)nc3)c12` (single isomer, unassigned) [Compound 157, 6-(1-((1r, 4r)-4-(4-(4-((2,6-dioxopiperidin-3-yl)amino)-2-fluorophenyl)piperazin-1-yl)cyclohexyl)-1H-pyrazol-4-yl)-4-(6-(9-(pyridin-2-ylmethyl)-3-oxa-7,9-diazabicyclo[3.3.1]nonan-7-yl)pyridin-3-yl)pyrazolo[1,5-a]pyrazine-3-carbonitrile], at RET(KD: 658-1114 G810R), the “293T.165 RET(KD: 658-1114 G810R) 6.0 hours (IP) [nM]” value is “++++ (<50 nM = ++++)”. Further, the maximal effect (Emax) on RET(KD: 658-1114 G810R) and on RET (658-1114) (% remaining protein) was less than 30% throughout. The DC50 on RET(KD: 658-1114 G810R) (setting [1]) and on RET (658-1114) (setting [1]) was less than 50 nM in each case. For the same compound, the “293T.144 RET” value at RET (658-1114) is recorded as “++++ (<50 nM = ++++)”.
As to `CCC1(C(=O)NC2CCC2)CCN(c2ccc(-c3nc(-c4cnn([C@H]5CC[C@H](N6CCN(c7c(F)cc(N[C@H]8CCC(=O)NC8=O)cc7F)CC6)CC5)c4)cn4ncc(C#N)c34)cn2)CC1` (single isomer, unassigned) [Compound 136], on RET(KD: 658-1114 G810R), the “293T.165 RET(KD: 658-1114 G810R) 6.0 hours (IP) [nM]” value is recorded as “++++ (<50 nM = ++++)”. Besides, the Emax at RET(KD: 658-1114 G810R) and at RET (658-1114) (% remaining protein) was less than 30% in each case. In addition, the DC50 at RET(KD: 658-1114 G810R) (setting [1]) and on RET (658-1114) (setting [1]) was less than 50 nM in each case. Moreover, the “293T.144 RET” value on RET (658-1114) is reported as “++++ (<50 nM = ++++)”.
Take `CCC1(C(=O)NC(C)C)CCN(c2ccc(-c3nc(-c4cnn(C5CCN(C(=O)CC6(O)CC7(CN(c8ccc(NC9CCC(=O)NC9=O)cc8F)C7)C6)CC5)c4)cn4ncc(C#N)c34)cn2)CC1` (stereo not shown) [Compound 97, 1-[5-[3-cyano-6-[1-[1-[2-[2-[4-[(2,6-dioxo-3-piperidyl)amino]-2-fluoro-phenyl]-6-hydroxy-2-azaspiro[3.3]heptan-6-yl]acetyl]-4-piperidyl]pyrazol-4-yl]pyrazolo[1,5-a]pyrazin-4-yl]-2-pyridyl]-4-ethyl-N-isopropyl-piperidine-4-carboxamide]: at RET(KD: 658-1114 G810R), the “293T.165 RET(KD: 658-1114 G810R) 6.0 hours (IP) [nM]” value was “++++ (<50 nM = ++++)”. Besides, the maximum response (Emax) at RET(KD: 658-1114 G810R) was less than 50%; at RET (658-1114) (% remaining protein), less than 30%. The DC50 was less than 100 nM at RET(KD: 658-1114 G810R) (setting [1]) and less than 50 nM on RET (658-1114) (setting [1]). Moreover, the “293T.144 RET” value at RET (658-1114) is on record as “++++ (<50 nM = ++++)”.
Turning to `CCC1(C(=O)NC[C@H]2C[C@H](F)C2)CCN(c2ccc(-c3nc(-c4cnn([C@H]5CC[C@H](N6CCN(c7ccc(NC8CCC(=O)NC8=O)cc7F)CC6)CC5)c4)cn4ncc(C#N)c34)cn2)CC1` (stereo partly shown) [Compound 207, 1-[5-[3-cyano-6-[1-[4-[4-[4-[(2,6-dioxo-3-piperidyl)amino]-2-fluoro-phenyl]piperazin-1-yl]cyclohexyl]pyrazol-4-yl]pyrazolo[1,5-a]pyrazin-4-yl]-2-pyridyl]-4-ethyl-N-[(3-fluorocyclobutyl)methyl]piperidine-4-carboxamide], at RET(KD: 658-1114 G810R), the “293T.165 RET(KD: 658-1114 G810R) 6.0 hours (IP) [nM]” value was “++++ (<50 nM = ++++)”. Moreover, the Emax at RET(KD: 658-1114 G810R) and at RET (658-1114) (% remaining protein) was less than 30% throughout. Also, the DC50 at RET(KD: 658-1114 G810R) (setting [1]) and on RET (658-1114) (setting [1]) was less than 50 nM throughout. For the same compound, the “293T.144 RET” value on RET (658-1114) was “++++ (<50 nM = ++++)”.
Turning to `CCC1(C(=O)NC(C)C)CCN(c2ccc(-c3nc(-c4cnn(C5CCN(CC6(O)CCN(c7ccc(NC8CCC(=O)NC8=O)cc7F)CC6)CC5)c4)cn4ncc(C#N)c34)cn2)CC1` (stereo not shown) [Compound 118, 1-(5-(3-cyano-6-(1-(1-((1-(4-((2,6-dioxopiperidin-3-yl)amino)-2-fluorophenyl)-4-hydroxypiperidin-4-yl)methyl)piperidin-4-yl)-1H-pyrazol-4-yl)pyrazolo[1,5-a]pyrazin-4-yl)pyridin-2-yl)-4-ethyl-N-isopropylpiperidine-4-carboxamide], the “293T.165 RET(KD: 658-1114 G810R) 6.0 hours (IP) [nM]” value at RET(KD: 658-1114 G810R) is listed as “++++ (<50 nM = ++++)”. The Emax on RET(KD: 658-1114 G810R) and on RET (658-1114) (% remaining protein) was less than 30% throughout. For the same compound, the DC50 on RET(KD: 658-1114 G810R) (setting [1]) and at RET (658-1114) (setting [1]) was less than 50 nM in each case. On RET (658-1114), the “293T.144 RET” value is “++++ (<50 nM = ++++)”.
Consider `N#Cc1cnn2cc(-c3cnn([C@H]4CC[C@H](N5CCN(c6cc(F)c(NC7CCC(=O)NC7=O)cc6F)CC5)CC4)c3)nc(-c3ccc(N4CC5COCC(C4)N5Cc4ccccn4)nc3)c12` (relative stereo) [Compound 161, 6-[1-[4-[4-[4-[(2,6-dioxo-3-piperidyl)amino]-2,5-difluoro-phenyl]piperazin-1-yl]cyclohexyl]pyrazol-4-yl]-4-[6-[9-(2-pyridylmethyl)-3-oxa-7,9-diazabicyclo[3.3.1]nonan-7-yl]-3-pyridyl]pyrazolo[1,5-a]pyrazine-3-carbonitrile], for which the “293T.165 RET(KD: 658-1114 G810R) 6.0 hours (IP) [nM]” value on RET(KD: 658-1114 G810R) was “++++ (<50 nM = ++++)”. In addition, the Emax at RET(KD: 658-1114 G810R) and on RET (658-1114) (% remaining protein) was less than 30% throughout. The DC50 on RET(KD: 658-1114 G810R) (setting [1]) and on RET (658-1114) (setting [1]) was less than 50 nM throughout. Moreover, the “293T.144 RET” value on RET (658-1114) is recorded as “++++ (<50 nM = ++++)”.
